Experimental data taken from US11591323B2, “Muscarinic agonists as non-steroidal and non-opioid analgesics and methods of use thereof” (Barry University, priority 2019, dated 2023).

Experiments:
Parameters in all cases: host or cells: CHO cells, stably transfected
M3 muscarinic receptor = M3 muscarinic receptor (Homo sapiens, UniProt P20309); assay: [3H]NMS competition binding, M3 CHO membranes; settings: competition with 1 nM [3H]NMS; read-out: Inhibition constants (Ki) as negative logarithms, M3 (converted)
M3 muscarinic receptor, sequence (P20309 whole entry): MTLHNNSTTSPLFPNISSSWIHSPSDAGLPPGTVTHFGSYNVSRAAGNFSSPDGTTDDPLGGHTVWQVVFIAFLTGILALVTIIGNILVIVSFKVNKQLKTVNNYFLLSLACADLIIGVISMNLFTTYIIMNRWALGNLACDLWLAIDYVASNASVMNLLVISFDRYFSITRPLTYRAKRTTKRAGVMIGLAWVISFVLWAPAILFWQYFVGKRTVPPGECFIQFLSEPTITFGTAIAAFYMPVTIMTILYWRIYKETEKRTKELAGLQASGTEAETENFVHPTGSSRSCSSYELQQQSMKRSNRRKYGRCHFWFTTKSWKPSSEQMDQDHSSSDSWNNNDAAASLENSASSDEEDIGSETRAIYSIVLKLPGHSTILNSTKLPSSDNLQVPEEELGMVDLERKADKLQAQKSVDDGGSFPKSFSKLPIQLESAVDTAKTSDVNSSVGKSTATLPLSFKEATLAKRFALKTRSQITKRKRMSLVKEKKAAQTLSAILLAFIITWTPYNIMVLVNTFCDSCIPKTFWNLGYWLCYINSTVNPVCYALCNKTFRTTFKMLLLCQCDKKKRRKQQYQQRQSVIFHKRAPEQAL

M1 muscarinic receptor [1] = biological target: T1, M1 muscarinic receptor (Homo sapiens, UniProt P11229); assay: accumulation of inositol phosphates IPX, M1 CHO cells (M1Gq); type: cell-based
T1 sequence (P11229 1-460): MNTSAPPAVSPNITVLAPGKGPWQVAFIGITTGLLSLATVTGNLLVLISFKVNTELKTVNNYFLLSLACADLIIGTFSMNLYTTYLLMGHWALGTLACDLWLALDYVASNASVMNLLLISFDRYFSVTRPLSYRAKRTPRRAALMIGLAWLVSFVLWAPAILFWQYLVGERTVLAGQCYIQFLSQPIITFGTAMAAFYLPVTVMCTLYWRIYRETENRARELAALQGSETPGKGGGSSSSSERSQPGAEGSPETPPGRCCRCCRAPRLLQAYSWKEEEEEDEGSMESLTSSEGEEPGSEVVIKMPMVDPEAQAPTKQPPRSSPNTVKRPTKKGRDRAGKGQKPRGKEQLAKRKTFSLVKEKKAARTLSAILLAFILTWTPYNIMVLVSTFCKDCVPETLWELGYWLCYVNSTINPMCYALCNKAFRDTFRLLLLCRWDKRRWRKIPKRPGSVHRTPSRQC

M1 muscarinic receptor [2] = biological target: T1, M1 muscarinic receptor; assay: stimulation of cAMP, M1 CHO cells (M1Gs); type: cell-based; settings: M1Gs (↑cAMP), Table 8, relative to carbachol
Experimental: Since activation of phospholipase C (PLC) via M2 and M4 receptors is weak, cells were transferred with G15 G-protein to facilitate coupling.
To determine level of cAMP, cells in suspension were pre-incubated for 1 h with 0.4 μM [^3H]adenine, washed, and incubated for 10 min in the presence of isobutylmethylxanthine and 10 μM forskolin. […] Incubation was ended by addition of 0.2 ml of 2.5 M HCl to the samples. Samples were applied to alumina columns (1.5 g of alumina per column), washed with 2 ml ammonium acetate (pH=7.0) and eluted from columns with 4 ml ammonium acetate and measured by liquid scintillation spectrometry. […] The incubation was stopped by addition of 0.5 ml of chloroform methanol HCl mixture (2:1:0.1). After separation of water and organic phases, 0.6 ml of water phase was applied to Dowex columns (1.5 g of Dowex per column), washed by 20 ml of 60 mM ammonium formate/5 mM sodium borate buffer and eluted from columns with 4 ml of 1M ammonium formate/0.1 formic acid buffer and measured by liquid scintillation spectrometry.
Measurements of the production of cAMP and inositol phosphates: Levels of second messengers cAMP and inositol phosphates were determined in radiochemical chromatography assays as described previously. To determine level of cAMP, cells in suspension were pre-incubated for 1 h with 0.4 μM [^3H]adenine, washed, and incubated for 10 min in the presence of isobutylmethylxanthine and 10 μM forskolin. […] Incubation was ended by addition of 0.2 ml of 2.5 M HCl to the samples. Samples were applied to alumina columns (1.5 g of alumina per column), washed with 2 ml ammonium acetate (pH=7.0) and eluted from columns with 4 ml ammonium acetate and measured by liquid scintillation spectrometry. […] For this purpose, new CHO cell lines stably expressing promiscuous G15 G-protein and M2 or M4 receptor were generated by transfection with pCMV/hygro vector and hygromycin selection. To determine the rate of formation of inositol phosphates IPX, suspended cells were pre-incubated with 0.1 μM [^3H]myo-inositol for 60 min, washed, and incubated with 10 mM LiCl for 15 min. […] The incubation was stopped by addition of 0.5 ml of chloroform methanol HCl mixture (2:1:0.1). After separation of water and organic phases, 0.6 ml of water phase was applied to Dowex columns (1.5 g of Dowex per column), washed by 20 ml of 60 mM ammonium formate/5 mM sodium borate buffer and eluted from columns with 4 ml of 1M ammonium formate/0.1 formic acid buffer and measured by liquid scintillation spectrometry.
For bi-phasic response, curves were inhibitory and stimulatory phase were fitted separately. Operational Model of Functional Agonism
[formula] where y is functional response at concentration of tested compound x, EMAX is maximal response of the system, KA is equilibrium dissociation constant and nH is slope factor. Eq. 5 was fitted to data from functional experiments. Eq. 5 was fitted to data by the two-step procedure described earlier. […] In the second step, Eq. 5 with EMAX fixed to the value determined in the first step was fitted to individual experimental data sets. Relative Intrinsic Activity
Muscarinic receptors are also able to stimulate non-preferential signalling pathways.

M2 muscarinic receptor = biological target: T2, M2 muscarinic receptor (Homo sapiens, UniProt P08172); assay: inhibition of forskolin-stimulated cAMP, M2 CHO cells (M2Gi); type: cell-based
T2 sequence (P08172 1-466): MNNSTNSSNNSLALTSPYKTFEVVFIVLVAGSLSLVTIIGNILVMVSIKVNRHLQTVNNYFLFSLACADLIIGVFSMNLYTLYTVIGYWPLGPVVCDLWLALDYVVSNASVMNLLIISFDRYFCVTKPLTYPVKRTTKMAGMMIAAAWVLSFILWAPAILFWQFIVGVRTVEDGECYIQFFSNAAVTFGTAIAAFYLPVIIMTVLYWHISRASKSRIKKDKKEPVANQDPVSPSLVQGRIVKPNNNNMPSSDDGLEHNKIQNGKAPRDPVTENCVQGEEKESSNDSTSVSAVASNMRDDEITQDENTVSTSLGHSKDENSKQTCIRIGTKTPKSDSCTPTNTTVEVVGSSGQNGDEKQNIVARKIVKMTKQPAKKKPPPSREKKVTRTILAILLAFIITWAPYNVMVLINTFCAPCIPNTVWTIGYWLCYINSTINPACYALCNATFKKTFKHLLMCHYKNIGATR

- Ki (M3 muscarinic receptor): 37.2 µM
- E′MAX (M1 muscarinic receptor [1]; M1 (↑IPX), preferential response, Table 7): 2.0 ± 0.2 fold over basal
- τ (M1 muscarinic receptor [1]; M1 (↑IPX), preferential response, Table 7, operational efficacy): 0.03 ± 0.01
- Kd (M1 muscarinic receptor [1]; M1 (↑IPX), preferential response, Table 7, operational model, read-out: pKA (converted)): 7.94 µM
- EC50 (M1 muscarinic receptor [1]; M1 (↑IPX), preferential response, Table 7, read-out: pEC50 (converted)): 7.94 µM
- RAi (M1 muscarinic receptor [1]; M1 (↑IPX), preferential response, relative to carbachol, Tables 2, 3, 7): 0.0010 ± 0.0001
- Δlog(τ/KA) (M1 muscarinic receptor [1]; M1 (↑IPX), preferential response, to carbachol, Tables 2, 3, 7): 2.98 ± 0.26
- E′MAX (M1 muscarinic receptor [1]; M1Gq (↑IPX), Table 8): 2.0 ± 0.2 fold increase
- pEC50 (M1 muscarinic receptor [1]; M1Gq (↑IPX), Table 8): 5.1 ± 0.1
- pKA (M1 muscarinic receptor [1]; M1Gq (↑IPX), Table 8): 5.1 ± 0.2
- τ (M1 muscarinic receptor [1]; M1Gq (↑IPX), Table 8): 0.03 ± 0.01
- RAi (M1 muscarinic receptor [1]; M1Gq (↑IPX), Table 8, relative to carbachol): 0.0011 ± 0.0007
- Δlog(τ/KA) (M1 muscarinic receptor [1]; M1Gq (↑IPX), Table 8, to carbachol): 2.96 ± 0.86
- RAi (M1 muscarinic receptor [2]): 0
- Emax (M2 muscarinic receptor; CHO, M2 (↓cAMP), preferential response, Table 7, read-out: E′MAX): 50 ± 2%
- τ (M2 muscarinic receptor; M2 (↓cAMP), preferential response, Table 7, operational efficacy): 1.32 ± 0.08
- Kd (M2 muscarinic receptor; M2 (↓cAMP), preferential response, Table 7, operational model, read-out: pKA (converted)): 1.58 µM
- EC50 (M2 muscarinic receptor; M2 (↓cAMP), preferential response, Table 7, read-out: pEC50 (converted)): 0.724 µM
- E′MAX (M2 muscarinic receptor; M2Gi (↓cAMP), Table 8): 50 ± 2 % inhibition
- pEC50 (M2 muscarinic receptor; M2Gi (↓cAMP), Table 8): 6.14 ± 0.05
- pKA (M2 muscarinic receptor; M2Gi (↓cAMP), Table 8): 5.8 ± 0.1
- τ (M2 muscarinic receptor; M2Gi (↓cAMP), Table 8): 1.3 ± 0.1
- RAi (M2 muscarinic receptor; M2Gi (↓cAMP), Table 8, relative to carbachol): 0.067 ± 0.007
- Δlog(τ/KA) (M2 muscarinic receptor; M2Gi (↓cAMP), Table 8, to carbachol): 1.22 ± 0.08
Compound: C1=CCN(Cc2cccs2)CC1.Cl [Compound 6A, 1-[(thiophen-2-yl)methyl]-1,2,3,6-tetrahydropyridin-1-ium chloride]
